Experimental data from patent publication US11278561B2, “Combination treatment for hematological cancers” (Geron Corporation, priority 2016, dated 2022).

What was measured:
KG-1 cells = test: Annexin V / Propidium Iodide flow cytometry apoptosis assay in KG-1; format: cell-based; design: key to Excess over HSA / Excess over BLISS: excess in % apoptotic (Annexin V/PI double-labeled) cells over HSA/Bliss; conditions: for Excess over BLISS / Excess over HSA: imetelstat sodium μM: r7 50, r8 25, r9 10, r10 0
Description: (§1) AML tumor cells KG-1 (ATCC #CCL-246) and MOLM-13 (DSMZ #ACC554) were plated at a density of ˜20,000 cells per well on 96-well polystyrene U-bottom tissue culture plates (Corning catalog #353777) in RPMI-1640 (ThermoFisher catalog #11875-085) supplemented with 10% fetal bovine serum (ThermoFisher catalog #16140-089) and 1% penicillin/streptomycin antibiotic cocktail (ThermoFisher catalog 15140-122) and grown in a 37° C. incubator under humidified 5% CO2 atmosphere.
(§2) At 48 and 96 hours, cells were measured for healthy, early apoptotic and apoptotic populations with an Annexin V (interior cell membrane stain) plus Propidium Iodide (PI, DNA binding dye) flow cytometry assay kit (BioLegend catalog 640914). Annexin V detects the externalization of phosphatidylserine in apoptotic cells using recombinant annexin V conjugated to green-fluorescent FITC dye and dead cells using Propidium iodide (PI). Propidium iodide stains necrotic cells with red fluorescence. After treatment with both probes, early apoptotic cells show green fluorescence, apoptotic (dead) cells show red and green fluorescence, and live cells show little or no fluorescence. […] Cells were stained for 30 minutes at 4° C. in the dark, followed by 3× washes with PBS and suspension in FACs Stain Buffer (BD catalog 554657) prior to interrogation on a BD FACs Canto flow cytometer for forward scatter, side scatter, FITC, and PE channels. […] The percentage of apoptotic cells (double labeled) was used to calculate combination effects using both the Highest Single Agent (HSA) and Bliss additivity models (J Tang et al. Frontiers in Pharmacology. 2015; 6 (181)).
(§3) Using the HSA model, the cytotoxic effect of the combined condition (“C”) was compared to the effect generated by each of the single agent controls (“A” or “B”) for the respective dose in the combination: Excess over HSA=C−A (if A>B) or C−B (if A<B)
(§4) The Bliss model performs a similar comparison, but instead of the highest effect of single agent, the Bliss model subtracts from the combination a value equal to the sum of each single agent minus their product: Excess over Bliss=C−[(A+B)−(A*B)]

MOLM-13 cells = test: Annexin V / Propidium Iodide flow cytometry apoptosis assay in MOLM-13; format: cell-based; design: key to Excess over HSA / Excess over BLISS: excess = combination minus HSA/Bliss expected, in % apoptotic cells; conditions: for Excess over BLISS / Excess over HSA: imetelstat sodium μM: r7 50, r8 25, r9 10, r10 0
Description: as §1, §2, §3, §4
Treated cells were analyzed by Flow cytometry for Annexin V and Propidium Iodide staining as described previously. Events gated in the apoptotic population (Annexin V+/Propidium Iodide+) were used to determine synergy scores for the combination matrix. Combination data analysis was generated by the Horizon Chalice™ Analyzer Software (Horizon Discovery Group, Cambridge, UK). […] Mismatch and non-complimentary controls were not utilized in this experiment.
Combination conditions undergo isobolar analysis to generate a combination index and graphically represent the behavior of a combination with synergistic pairs falling below the isobologram and antagonistic falling above it (additive combinations would be expected to fall on the line). The Horizon Chalice™ Analyzer Software additionally provides a synergy score, with values greater than 1 indicating synergy.

hTERT = hTERT transcription levels by RT-qPCR in KG-1; format: cell-based, human; conditions: 20 nM ABT-199, at either time point (48 or 96 hours)
Description: Samples from cell experiments (and single agent controls) were collected for molecular analyses to assess combination effects contributing to potential mechanisms of action. […] Nucleic acids were purified by first lysing cells with 350 μL of RLT Buffer (Qiagen catalog #1030963) supplemented with 2-mercaptoethanol (Sigma catalog #63689-100ML-F). RNA was purified with the AllPrep RNA/DNA Mini Kit (Qiagen catalog #80204) and reverse transcribed to cDNA using a High Capacity cDNA kit (ThermoFisher catalog #4368814) and pre-amplified prior to analysis with TaqMan PreAmp Master Mix (ThermoFisher catalog #4384557B). Products were analyzed using an in-house developed Taq-Man RT-qPCR assay to measure hTERT transcription levels (TaqMan Universal PCR Master Mix—ThermoFisher catalog #4304437; primer and probe sequences below) using a ViiA7 Real-Time PCR system from ThermoFisher: […]

[1] = MOLM-13, 48 hours, ABT-199 1 nM
[2] = MOLM-13, 48 hours, ABT-199 5 nM
[3] = MOLM-13, 48 hours, ABT-199 20 nM
[4] = MOLM-13, 48 hours, ABT-199 100 nM
[5] = MOLM-13, 48 hours, ABT-199 500 nM
[6] = MOLM-13, 96 hours, ABT-199 1 nM
[7] = MOLM-13, 96 hours, ABT-199 5 nM
[8] = MOLM-13, 96 hours, ABT-199 20 nM
[9] = MOLM-13, 96 hours, ABT-199 100 nM
[10] = MOLM-13, 96 hours, ABT-199 500 nM

With `CC1(C)CCC(CN2CCN(c3ccc(C(=O)NS(=O)(=O)c4ccc(NCC5CCOCC5)c([N+](=O)[O-])c4)c(Oc4cnc5[nH]ccc5c4)c3)CC2)=C(c2ccc(Cl)cc2)C1` [ABT-199, 4-[4-[[2-(4-chlorophenyl)-4,4-dimethylcyclohexen-1-yl]methyl]piperazin-1-yl]-N-[3-nitro-4-(oxan-4-ylmethylamino)phenyl]sulfonyl-2-(1H-pyrrolo [2,3-b]pyridin-5-yloxy)benzamide] the “Excess over BLISS” value (KG-1 cells; KG-1, 48 hours (title of Table 6), ABT-199 1 nM) was 0, the “Excess over BLISS” value (KG-1 cells; KG-1, 48 hours (title of Table 6), ABT-199 5 nM) was 0 and the “Excess over BLISS” value (KG-1 cells; KG-1, 48 hours (title of Table 6), ABT-199 20 nM) was 0. The “Excess over BLISS” value (KG-1 cells; KG-1, 48 hours (title of Table 6), ABT-199 100 nM) was 0, the “Excess over BLISS” value (KG-1 cells; KG-1, 48 hours (title of Table 6), ABT-199 500 nM) was 0 and the “Excess over BLISS” value (KG-1 cells; KG-1, 48 hours, ABT-199 1 nM) was 0. The “Excess over HSA” value (KG-1 cells; KG-1, 48 hours, ABT-199 1 nM) was 0, the “Excess over BLISS” value (KG-1 cells; KG-1, 48 hours, ABT-199 5 nM) was 0 and the “Excess over HSA” value (KG-1 cells; KG-1, 48 hours, ABT-199 5 nM) was 0. For the same compound, the “Excess over BLISS” value (KG-1 cells; KG-1, 48 hours, ABT-199 20 nM) was 0, the “Excess over HSA” value (KG-1 cells; KG-1, 48 hours, ABT-199 20 nM) was 0 and the “% apoptotic cells (double label)” value (KG-1 cells; KG-1, 48 hours, ABT-199 100 nM) was ~9%. The “Excess over BLISS” value (KG-1 cells; KG-1, 48 hours, ABT-199 100 nM) was 0, the “Excess over HSA” value (KG-1 cells; KG-1, 48 hours, ABT-199 100 nM) was 0 and the “% apoptotic cells (double label)” value (KG-1 cells; KG-1, 48 hours, ABT-199 500 nM) was ~14%. For the same compound, the “Excess over BLISS” value (KG-1 cells; KG-1, 48 hours, ABT-199 500 nM) was 0, the “Excess over HSA” value (KG-1 cells; KG-1, 48 hours, ABT-199 500 nM) was 0 and the “Excess over HSA” value (KG-1 cells; KG-1, 96 hours, ABT-199 1 nM) was 0. For the same compound, the “Excess over HSA” value (KG-1 cells; KG-1, 96 hours, ABT-199 5 nM) was 0, the “Excess over HSA” value (KG-1 cells; KG-1, 96 hours, ABT-199 20 nM) was 0 and the “% apoptotic cells (double label)” value (KG-1 cells; KG-1, 96 hours, ABT-199 100 nM) was ~6%. For the same compound, the “Excess over HSA” value (KG-1 cells; KG-1, 96 hours, ABT-199 100 nM) was 0, the “% apoptotic cells (double label)” value (KG-1 cells; KG-1, 96 hours, ABT-199 500 nM) was ~10% and the “Excess over HSA” value (KG-1 cells; KG-1, 96 hours, ABT-199 500 nM) was 0. The “Excess over BLISS” value (MOLM-13 cells; [1]) was 0, the “Excess over HSA” value (MOLM-13 cells; [1]) was 0 and the “Excess over BLISS” value (MOLM-13 cells; [2]) was 0. The “Excess over HSA” value (MOLM-13 cells; [2]) was 0, the “Excess over BLISS” value (MOLM-13 cells; [3]) was 0 and the “Excess over HSA” value (MOLM-13 cells; [3]) was 0. The “% apoptotic cells (double label)” value (MOLM-13 cells; [4]) was ~19%, the “Excess over BLISS” value (MOLM-13 cells; [4]) was 0 and the “Excess over HSA” value (MOLM-13 cells; [4]) was 0. For the same compound, the “% apoptotic cells (double label)” value (MOLM-13 cells; [5]) was ~30%, the “Excess over BLISS” value (MOLM-13 cells; [5]) was 0 and the “Excess over HSA” value (MOLM-13 cells; [5]) was 0. The “Excess over BLISS” value (MOLM-13 cells; [6]) was 0, the “Excess over HSA” value (MOLM-13 cells; [6]) was 0 and the “Excess over BLISS” value (MOLM-13 cells; [7]) was 0. The “Excess over HSA” value (MOLM-13 cells; [7]) was 0, the “Excess over BLISS” value (MOLM-13 cells; [8]) was 0 and the “Excess over HSA” value (MOLM-13 cells; [8]) was 0. For the same compound, the “Excess over BLISS” value (MOLM-13 cells; [9]) was 0, the “Excess over HSA” value (MOLM-13 cells; [9]) was 0 and the “Excess over BLISS” value (MOLM-13 cells; [10]) was 0. The “Excess over HSA” value (MOLM-13 cells; [10]) was 0, the cell death (MOLM-13 cells; MOLM-13, 96 hours, ABT-199 at 5, 20, 100 and 500 nM) was > 30% and the apoptotic activity (MOLM-13 cells; MOLM-13, after 48 hours, concentrations not given) was 30%. The “hTERT RNA expression level, percentage of untreated controls” value (hTERT) was 90-95%.
